Assay results: US20130064890A1, “PHARMACEUTICAL FORMULATION BASED ON IBUPROFEN AND CODEINE HAVING IMPROVED STABILITY” ([…] MANUFACTURING, S.L., priority 2010, published 2013)

Assay: Differential Scanning Calorimetry (DSC) detection of incompatibilities, binary mixtures in equal parts
Format: physicochemical
Settings: mixture in equal parts with ibuprofen, heating rate 5° C./min
Procedure: The technique called Differential Scanning calorimetry or DSC has been used for the thermal detection of possible incompatibilities among ingredients of the pharmaceutical formulation described in the present invention. Thus, by using a differential Scanning calorimeter, DSC-7 (Perkin-Elmer, USA) at a heating rate of the samples of 5° C./min, the quantity of energy or enthalpy required to keep the sample at the same temperature as that of the reference and that at each of the test temperatures is measured. […] However, when phase changes occur, the isothermal energy required is registered as an electric signal generated by thermocouples. It is understood that a change of phase occurs (or appearance of incompatibility) if the expected temperature value varies above the considered environment by 10% with respect to its original. Said error is carried from that produced typically in the analytical measurements (±5%, typical in terms of reproducibility), the uncertainty of apparatus calibration (±1%), the accuracy of the micromixture of ingredients achieved (±3%), and the rapid heating rates (±1% for heating>1° C./min). DSC is widely used in the industry as a quality control instrument due to its applicability in assessing the purity of the samples and studying the curing of the polymers. […]

Row | Compound | thermal/physical incompatibility with ibuprofen by DSC
1 | CCCCCCCCCCCCCCCCCCOC(=O)/C=C/C(=O)[O-].[Na+] [sodium stearyl fumarate] | does not show any physical incompatibility
2 | magnesium stearate | incompatible eutectic mixture
